“And” between values parts separate entries of the source, which are not always exact repeats. Identical values can stand only once.
How the values were obtained:
hPPARalpha [1] = biological target: T1, hPPARalpha (Homo sapiens, UniProt Q07869); experiment: PPAR activation: Gal4-hPPARα chimera luciferase transactivation in COS-7 cells, Method 2; type: cell-based; conditions: COS-7, 24 h; for EC50: 1% Ultroser; for Emax: maximum percentage response relative to the reference phenofibric acid, read-out: hPPARalpha % max
T1 construct: expressed in transfected cells; host or cells: COS-7 (monkey kidney fibroblasts)
T1 sequence (Q07869 239-466 limits assumed): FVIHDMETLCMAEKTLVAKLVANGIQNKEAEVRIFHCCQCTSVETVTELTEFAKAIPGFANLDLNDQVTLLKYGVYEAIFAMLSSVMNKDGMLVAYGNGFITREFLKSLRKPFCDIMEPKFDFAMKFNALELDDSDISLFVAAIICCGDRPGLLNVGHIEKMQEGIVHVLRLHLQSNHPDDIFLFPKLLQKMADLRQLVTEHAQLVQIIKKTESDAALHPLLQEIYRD
Protocol: (§1) The activation of the PPARs was evaluated in vitro on a line of monkey kidney fibroblasts (COS-7) by measuring the transcriptional activity of chimeras constituted of the DNA binding domain of the Gal4 transcription factor of yeast and the ligand binding domain of the various PPARs. The compounds were tested at doses between 10^−5 and […] on the chimeras Gal4-PPARα, γ or δ, and the corresponding EC50 values were determined.
(§2) The principle, the cells and the plasmids used for example 5 were also employed in this example. Only the application of the transfection stage is slightly different. The details are presented below.
(§3) The adherent COS-7 cells are transfected with 40 μg of DNA per 225 cm^2 dish, with a pGal4-PPAR/Gal4(RE)_TkpGL3 ratio of 1/10, in the presence of 10% fetal calf serum. The cells are then detached and seeded in the absence of serum in 384-well plates (2×10^4 cells/well) and incubated for 4 hours at 37° C. The compounds are then diluted in a 96-well plate and transferred to the 384-well plate. Activation with the test compounds is carried out for an additional 24 h at 37° C. in the presence of 1% of Ultroser™ lipid-free synthetic serum (Biosepra). These last 2 stages are automated using a Genesis Freedom 200™ station (Tecan). At the end of the experiment, the cells are lysed and the luciferase activity is determined using the Steady-Lite™ HTS (Perkin Elmer) following the supplier's recommendations.

hPPARdelta [2] = biological target: T2, hPPARdelta (Homo sapiens, UniProt Q03181); experiment: PPAR activation: Gal4-hPPARδ chimera luciferase transactivation in COS-7 cells, Method 2; type: cell-based; conditions: COS-7, 24 h; for EC50: 1% Ultroser; for Emax: maximum percentage response relative to the reference GW501516, read-out: hPPARdelta % max
T2 construct: expressed in transfected cells; host or cells: COS-7 (monkey kidney fibroblasts)
T2 sequence (Q03181 211-439 limits assumed): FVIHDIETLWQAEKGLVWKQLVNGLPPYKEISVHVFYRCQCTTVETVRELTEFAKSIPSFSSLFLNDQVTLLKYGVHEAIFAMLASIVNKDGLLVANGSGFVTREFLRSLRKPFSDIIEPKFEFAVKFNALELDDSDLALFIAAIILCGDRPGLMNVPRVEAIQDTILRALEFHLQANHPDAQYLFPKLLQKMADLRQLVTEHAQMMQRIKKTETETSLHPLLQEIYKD
Protocol: as §1, §2, §3

hPPARgamma [3] = biological target: T3, hPPARgamma (Homo sapiens, UniProt P37231); experiment: PPAR activation: Gal4-hPPARγ chimera luciferase transactivation in COS-7 cells, Method 2; type: cell-based; conditions: COS-7, 24 h; for EC50: 1% Ultroser
T3 construct: expressed in transfected cells; host or cells: COS-7 (monkey kidney fibroblasts)
T3 sequence (P37231 238-503 limits assumed): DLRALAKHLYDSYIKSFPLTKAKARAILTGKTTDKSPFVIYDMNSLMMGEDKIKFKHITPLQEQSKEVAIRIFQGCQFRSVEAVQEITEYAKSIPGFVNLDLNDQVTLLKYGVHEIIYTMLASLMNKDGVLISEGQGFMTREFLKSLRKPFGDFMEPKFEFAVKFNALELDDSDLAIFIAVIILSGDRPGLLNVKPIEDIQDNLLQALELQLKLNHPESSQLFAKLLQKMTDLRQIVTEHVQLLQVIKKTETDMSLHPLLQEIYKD
Protocol: The activation of the PPARs was evaluated in vitro on a line of monkey kidney fibroblasts (COS-7) by measuring the transcriptional activity of chimeras constituted of the DNA binding domain of the Gal4 transcription factor of yeast and the ligand binding domain of the various PPARs.
Only the application of the transfection stage is slightly different. The details are presented below.
as §3

hPPARgamma [4] = biological target: T3, hPPARgamma; experiment: PPAR activation: Gal4-hPPARγ chimera luciferase transactivation in COS-7 cells, Method 1; type: cell-based; conditions: COS-7, 24 h; for Emax: maximum percentage response relative to the reference rosiglitazone, read-out: hPPARgamma % max
Protocol: as §1
(§4) The COS-7 cells were obtained from the ATCC and were cultivated in DMEM medium supplemented with 10% (v/v) of fetal calf serum, 100 U/ml of penicillin (Gibco, Paisley, UK) and 2 mM of L-glutamine (Gibco, Paisley, UK). The cells were incubated at 37° C. in a humid atmosphere containing 5% CO2.
(§5) The plasmids Gal4(RE)_TkpGL3, pGal4-hPPARα, pGal4-hPPARγ, pGal4-hPPARδ and pGal4-φ are described in the literature (Raspe E et al., 1999). The constructs pGal4-hPPARα, pGal4-hPPARγ and pGal4-hPPARδ were obtained by cloning DNA fragments amplified by PCR corresponding to the DEF domains of the human nuclear receptors PPARα, PPARγ and PPARδ in the pGal4-φ vector.
(§6) The COS-7 cells in suspension were transfected with 150 ng of DNA per well, with a pGal4-PPAR/Gal4(RE)_TkpGL3 ratio of 1/10, in the presence of 10% fetal calf serum. The cells were seeded in 96-well plates (4×10^4 cells/well) and then incubated at 37° C. for 24 hours. Activation with the test compounds is carried out for 24 h at 37° C. in serum-free medium. At the end of the experiment, the cells were lysed and the luciferase activity was determined using the Steady-Lite™ HTS (Perkin Elmer) following the supplier's recommendations.

hPPARdelta [5] = biological target: T2, hPPARdelta; experiment: PPAR activation: Gal4-hPPARδ chimera luciferase transactivation in COS-7 cells, Method 1; type: cell-based; conditions: COS-7, 24 h; for Emax: maximum percentage response relative to the reference GW501516, read-out: hPPARdelta % max
Protocol: as §1, §4, §5, §6

hPPARalpha [6] = biological target: T1, hPPARalpha; experiment: PPAR activation: Gal4-hPPARα chimera luciferase transactivation in COS-7 cells, Method 1; type: cell-based; conditions: COS-7, 24 h; for Emax: maximum percentage response relative to the reference phenofibric acid, read-out: hPPARalpha % max
Protocol: as §1, §4, §5, §6

[7] = maximum percentage response relative to the reference rosiglitazone, Method 2, read-out: hPPARgamma % max
[8] = Method 2, read-out: hPPARgamma EC50

Row | Structure (SMILES) | melting point [°C] | EC50 (hPPARalpha [1]) | Emax (hPPARalpha [1]) [%] | EC50 (hPPARdelta [2]) | Emax (hPPARdelta [2]) [%] | Emax (hPPARgamma [3]; [7]) [%] | EC50 (hPPARgamma [3]; [8]) [nM] | EC50 (hPPARgamma [4]) [nM] | Emax (hPPARgamma [4]) [%] | EC50 (hPPARdelta [5]) [nM] | Emax (hPPARdelta [5]) [%] | Emax (hPPARalpha [6]) [%] | EC50 (hPPARalpha [6]) [nM] | Emax (hPPARgamma [3]; read-out: hPPARgamma % max, maximum percentage response relative to the reference rosiglitazone, Method 2) [%] | EC50 (hPPARgamma [3]; hPPARgamma EC50, Method 2)
1 | CC(C)(Oc1ccc(CCC(=O)c2ccc(-c3ccc(C(F)(F)F)cc3)s2)cc1F)C(=O)O [Compound 23, 2-(2-fluoro-4-(3-oxo-3-(5-(4-(trifluoromethyl)phenyl)thien-2-yl)propyl)phenoxy)-2-methylpropanoic acid] | 150 to 151 |  |  |  |  |  |  | 400 | 49 | 16 | 95 | 48 |  |  | 
2 | O=C(O)COc1ccc(CCC(=O)c2ccc(-c3ccc(C(F)(F)F)cc3)s2)cc1F [Compound 25, 2-(2-fluoro-4-(3-oxo-3-(5-(4-(trifluoromethyl)phenyl)thien-2-yl)-propyl)phenoxy)acetic acid] | 170 to 171 | 1680 nM | 55 | 7450 nM | 75 | 27 | 36500 |  |  |  |  |  |  |  | 
3 | CCC(Oc1ccc(CCC(=O)c2ccc(-c3ccc(C(F)(F)F)cc3)s2)cc1F)C(=O)O (stereo not drawn) [Compound 29, 2-(2-fluoro-4-(3-oxo-3-(5-(4-(trifluoromethyl)phenyl)thien-2-yl)-propyl)phenoxy)butanoic acid] | 119 to 120 |  |  |  |  |  |  | 1270 | 65 | 37 | 88 | 56 | 2 |  | 
4 | CCC(Oc1ccc(CCC(=O)c2ccc(-c3ccc(C(F)(F)F)cc3)s2)cc1Br)C(=O)O (stereo not drawn) [Compound 32, 2-(2-bromo-4-(3-oxo-3-(5-(4-(trifluoromethyl)phenyl)thien-2-yl)propyl)phenoxy)butanoic acid] | 126 to 128 |  |  |  |  |  |  | 210 | 67 | 36 | 75 | 52 | 8 |  | 
5 | O=C(O)COc1ccc(CCC(=O)c2ccc(-c3ccc(C(F)(F)F)cc3)s2)cc1Br [Compound 34, 2-(2-bromo-4-(3-oxo-3-(5-(4-(trifluoromethyl)phenyl)thien-2-yl)propyl)phenoxy)acetic acid] | 180 to 182 |  |  |  |  |  |  |  | 37 | 114 | 95 | 61 | 60 |  | 
6 | CC(C)(Oc1ccc(CCC(=O)c2ccc(-c3ccc(C(F)(F)F)cc3)s2)cc1Br)C(=O)O [Compound 36, 2-(2-bromo-4-(3-oxo-3-(5-(4-(trifluoromethyl)phenyl)thien-2-yl)propyl)phenoxy)-2-methylpropanoic acid] | 102 to 104 |  |  |  |  |  |  |  | 63 | 9 | 85 | 47 | 5 |  | 

More lines, now with the values ahead:

Row | melting point [°C] | EC50 (hPPARalpha [1]) | Emax (hPPARalpha [1]) [%] | EC50 (hPPARdelta [2]) | Emax (hPPARdelta [2]) [%] | Emax (hPPARgamma [3]; [7]) [%] | EC50 (hPPARgamma [3]; [8]) [nM] | EC50 (hPPARgamma [4]) [nM] | Emax (hPPARgamma [4]) [%] | EC50 (hPPARdelta [5]) [nM] | Emax (hPPARdelta [5]) [%] | Emax (hPPARalpha [6]) [%] | EC50 (hPPARalpha [6]) [nM] | Emax (hPPARgamma [3]; read-out: hPPARgamma % max, maximum percentage response relative to the reference rosiglitazone, Method 2) [%] | EC50 (hPPARgamma [3]; hPPARgamma EC50, Method 2) | Structure (SMILES)
7 | 68 to 69 | 260 nM | 38 | 50 nM | 78 | 32 | 270 |  |  |  |  |  |  |  |  | CON=C(CCc1ccc(OC(C)(C)C(=O)O)c(Cl)c1Cl)c1ccc(-c2ccc(C(F)(F)F)cc2)s1 (mixture of isomers) [Compound 50, 2-(2,3-dichloro-4-(3-(methoxyimino)-3-(5-(4-(trifluoromethyl)-phenyl)thien-2-yl)propyl)phenoxy)-2-methylpropanoic acid]
8 | 85 | 200 nM and 320 nM | 44 | 14 nM and 9 nM | 89 |  |  |  |  |  |  |  |  | 37 | 1840 nM and 810 nM | CC(C)(Oc1ccc(CCC(=O)c2ccc(-c3ccc(C(F)(F)F)cc3)o2)c(Cl)c1Cl)C(=O)O [Compound 38, 2-(2,3-dichloro-4-(3-oxo-3-(5-(4-(trifluoromethyl)phenyl)fur-2-yl)-propyl)phenoxy)-2-methylpropanoic acid]
9 | 135 to 136 |  |  |  |  |  |  | 100 | 46 | 27 | 109 | 54 | 16 |  |  | CC(C)(Oc1ccc(CCC(=O)c2ccc(-c3ccc(OC(F)(F)F)cc3)s2)c(Cl)c1Cl)C(=O)O [Compound 44, 2-(2,3-dichloro-4-(3-oxo-3-(5-(4-(trifluoromethoxy)phenyl)thien-2-yl)propyl)phenoxy)-2-methylpropanoic acid]
10 | 155 to 157 | 210 nM | 53 | 50 nM | 104 | 57 | 1020 |  |  |  |  |  |  |  |  | CC(C)(Oc1ccc(CCC(=O)c2ccc(-c3ccc(Br)cc3)s2)c(Cl)c1Cl)C(=O)O [Compound 52, 2-(4-(3-(5-(4-bromophenyl)thien-2-yl)-3-oxopropyl)-2,3-dichloro-phenoxy)-2-methylpropanoic acid]
11 | 58 to 59 |  |  |  |  |  |  | 30 | 78 | 6 | 101 | 42 | 591 |  |  | CC(C)(Oc1ccc(CCC(OCc2ccccc2)c2cc(-c3ccc(C(F)(F)F)cc3)cs2)c(Cl)c1Cl)C(=O)O (stereo not drawn) [Compound 61, 2-(4-(3-(benzyloxy)-3-(4-(4-(trifluoromethyl)phenyl)thien-2-yl)propyl)-2,3-dichlorophenoxy)-2-methylpropanoic acid]
12 | 116 to 117 |  |  |  |  |  |  |  | 73 | 109 | 79 | 52 | 4 |  |  | CCC(Oc1ccc(CCC(=O)c2ccc(-c3ccc(C(F)(F)F)cc3)s2)cc1)C(=O)O (stereo not drawn) [Compound 65, 2-(4-(3-oxo-3-(5-(4-(trifluoromethyl)phenyl)thien-2-yl)propyl)-phenoxy)butanoic acid]
13 | 182 to 183 |  |  |  |  |  |  | 3530 | 15 | 292 | 90 | 61 | 33 |  |  | O=C(O)COc1ccc(CCC(=O)c2ccc(-c3ccc(C(F)(F)F)cc3)s2)cc1 [Compound 69, 2-(4-(3-oxo-3-(5-(4-(trifluoromethyl)phenyl)thien-2-yl)propyl)-phenoxy)acetic acid]
